Several values for one entry are separate records, joined by “and”; a condition that tells them apart may be missing. Equal entries are not always repeated. Toxic doses and inconclusive results are not listed. Rule as the data show it: active = T/C of 150% or more; inactive = T/C below 125%.
Tested on: L1210 leukemia ip in BDF1 mice, survival T/C
Assay: NCI In Vivo Anticancer Drug Screen. Data for tumor model L1210 Leukemia (intraperitoneal) in B6D2F1 (BDF1) mice
Conditions: endpoint: mean survival time, higher = longer survival
How it was run: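 Value reflects the ratio of survival in compound-treated mice to survival in vehicle-treated controls, with both groups carrying the same transplanted tumor.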

[1] = dose: 100.0 mg/kg/injection, schedule: Q04DX003 (ip), vehicle: saline with Tween-80
[2] = dose: 200.0 mg/kg/injection, schedule: Q04DX003 (ip), vehicle: saline with Tween-80
[3] = dose: 100.0 mg/kg/injection, schedule: Q01DX009 (ip), vehicle: Klucel (hydroxypropylcellulose) (HPC)
[4] = dose: 200.0 mg/kg/injection, schedule: Q01DX009 (ip), vehicle: Klucel (hydroxypropylcellulose) (HPC)
[5] = dose: 100.0 mg/kg/injection, schedule: Q01DX001 (ip), vehicle: saline
[6] = dose: 200.0 mg/kg/injection, schedule: Q01DX001 (ip), vehicle: saline
[7] = dose: 400.0 mg/kg/injection, schedule: Q01DX001 (ip), vehicle: saline
[8] = dose: 100.0 mg/kg/injection, schedule: Q04DX003 (ip), vehicle: saline
[9] = dose: 200.0 mg/kg/injection, schedule: Q04DX003 (ip), vehicle: saline
[10] = dose: 100.0 mg/kg/injection, schedule: Q01DX001 (ip), vehicle: other
[11] = dose: 200.0 mg/kg/injection, schedule: Q01DX001 (ip), vehicle: other
[12] = dose: 400.0 mg/kg/injection, schedule: Q01DX001 (ip), vehicle: other

Measured: T/C

C1CN2CCN1CC2.[Cl][Ni+][Cl]
inactive: dose: 1.56 mg/kg/injection, schedule: Q01DX009 (ip), vehicle: saline 101 % of control | dose: 2.0 mg/kg/injection, schedule: Q04DX003 (ip), vehicle: saline 109 % of control | dose: 3.12 mg/kg/injection, schedule: Q01DX009 (ip), vehicle: saline 101 % of control | dose: 4.0 mg/kg/injection, schedule: Q04DX003 (ip), vehicle: saline 106 % of control | dose: 6.25 mg/kg/injection, schedule: Q01DX009 (ip), vehicle: saline 94 % of control | dose: 8.0 mg/kg/injection, schedule: Q04DX003 (ip), vehicle: saline 97 % of control | dose: 12.5 mg/kg/injection, schedule: Q01DX009 (ip), vehicle: saline 92 % of control | dose: 16.0 mg/kg/injection, schedule: Q04DX003 (ip), vehicle: saline 105 % of control

NS(=O)(=O)c1cc2c(cc1Cl)NC(CSCC(F)(F)F)NS2(=O)=O (stereo not drawn)
inactive: dose: 100.0 mg/kg/injection, schedule: Q01DX001 (ip), vehicle: carboxymethylcellulose (CMC) 113 % of control | dose: 200.0 mg/kg/injection, schedule: Q01DX001 (ip), vehicle: carboxymethylcellulose (CMC) 108 % of control | dose: 400.0 mg/kg/injection, schedule: Q01DX001 (ip), vehicle: carboxymethylcellulose (CMC) 97 % of control

CN(C=O)c1ccccc1C(=O)O
inactive: [1] 97 % of control | [2] 97 % of control | dose: 400.0 mg/kg/injection, schedule: Q04DX003 (ip), vehicle: saline with Tween-80 100 % of control

Cc1cccc(C(=O)NNC(=O)c2cccc(C)c2)c1
inactive: [3] 106 % of control | [4] 108 % of control

CN=C(NCCCOC)c1ccc(NC(=O)Nc2ccc(NC(=O)Nc3ccc(C(=NC)NCCCOC)cc3)cc2)cc1
inactive: dose: 1.87 mg/kg/injection, schedule: Q01DX Z (ip), vehicle: carboxymethylcellulose (CMC) 107 % of control | dose: 3.75 mg/kg/injection, schedule: Q01DX Z (ip), vehicle: carboxymethylcellulose (CMC) 96 % of control | dose: 7.5 mg/kg/injection, schedule: Q01DX Z (ip), vehicle: carboxymethylcellulose (CMC) 104 % of control | dose: 15.0 mg/kg/injection, schedule: Q01DX Z (ip), vehicle: carboxymethylcellulose (CMC) 102 % of control

COc1cc2cnc3c4cc(OC)c(OC)cc4ccc3c2cc1OC
inactive: dose: 80.0 mg/kg/injection, schedule: Q01DX009 (ip), vehicle: saline 88 % of control | dose: 120.0 mg/kg/injection, schedule: Q01DX009 (ip), vehicle: saline 90 % of control | dose: 240.0 mg/kg/injection, schedule: Q01DX009 (ip), vehicle: saline 91 % of control

CCN(CC)C(C)(C)CCl
inactive: [5] 104 % of control

Cn1c2c(c(=O)n(C)c1=O)NC1(N2)C(=O)Nc2ccccc21 (stereo not drawn)
inactive: [5] 101 % of control | [6] 98 % of control | [7] 101 % of control

O=C1CCC(N2C(=O)C3C4CCC(O4)C3C2=O)C(=O)O1 (stereo not drawn)
inactive: dose: 100.0 mg/kg/injection, schedule: Q04DX002 (ip), vehicle: saline 102 % of control | dose: 200.0 mg/kg/injection, schedule: Q04DX002 (ip), vehicle: saline 94 % of control | dose: 400.0 mg/kg/injection, schedule: Q04DX002 (ip), vehicle: saline 91 % of control

CNCCc1ccc(O)cc1
inactive: [5] 104 % of control | [6] 102 % of control | [7] 104 % of control

CCCCOC(=O)CC1CCCN1C (stereo not drawn)
inactive: [8] 110 % of control | [9] 101 % of control

Cc1cccc(C)c1-n1nnnc1N
inactive: dose: 50.0 mg/kg/injection, schedule: Q01DX009 (ip), vehicle: Klucel (hydroxypropylcellulose) (HPC) 105 % of control | [3] 119 % of control | [4] 101 % of control

Cc1nc2ccc(Cl)cc2c(=O)[nH]1
inactive: [10] 102 % of control | dose: 100.0 mg/kg/injection, schedule: Q04DX003 (ip), vehicle: other 96 % of control | [11] 96 % of control | dose: 200.0 mg/kg/injection, schedule: Q04DX003 (ip), vehicle: other 96 % of control | [12] 104 % of control | dose: 400.0 mg/kg/injection, schedule: Q04DX003 (ip), vehicle: other 96 % of control

COc1ccc(C(=O)CC(O)(C(F)(F)F)C(F)(F)F)cc1F
inactive: dose: 100.0 mg/kg/injection, schedule: Q04DX003 (ip), vehicle: Klucel (hydroxypropylcellulose) (HPC) 103 % of control | dose: 200.0 mg/kg/injection, schedule: Q04DX003 (ip), vehicle: Klucel (hydroxypropylcellulose) (HPC) 106 % of control | dose: 400.0 mg/kg/injection, schedule: Q04DX003 (ip), vehicle: Klucel (hydroxypropylcellulose) (HPC) 95 % of control

COC1C(OC(N)=O)C(O)C(Oc2ccc3c(O)c(N)c(=O)oc3c2C)OC1(C)C (stereo not drawn)
inactive: dose: 37.5 mg/kg/injection, schedule: Q01DX009 (ip), vehicle: Klucel (hydroxypropylcellulose) (HPC) 98 % of control | dose: 75.0 mg/kg/injection, schedule: Q01DX009 (ip), vehicle: Klucel (hydroxypropylcellulose) (HPC) 101 % of control | dose: 150.0 mg/kg/injection, schedule: Q01DX009 (ip), vehicle: Klucel (hydroxypropylcellulose) (HPC) 104 % of control | dose: 300.0 mg/kg/injection, schedule: Q01DX009 (ip), vehicle: Klucel (hydroxypropylcellulose) (HPC) 101 % of control

O=C(NOS(=O)(=O)O)c1ccccc1
inactive: dose: 25.0 mg/kg/injection, schedule: Q01DX001 (ip), vehicle: saline 94 % of control | dose: 25.0 mg/kg/injection, schedule: Q01DX009 (ip), vehicle: saline 110 % of control | dose: 25.0 mg/kg/injection, schedule: Q04DX003 (ip), vehicle: saline 98 % of control | dose: 50.0 mg/kg/injection, schedule: Q01DX001 (ip), vehicle: saline 99 % of control | dose: 50.0 mg/kg/injection, schedule: Q01DX009 (ip), vehicle: saline 97 % of control | dose: 50.0 mg/kg/injection, schedule: Q04DX003 (ip), vehicle: saline 100 % of control | [5] 100 % of control and 104 % of control | [8] 100 % of control

CC(C)=NNc1ccc([N+](=O)[O-])cc1[N+](=O)[O-]
inactive: dose: 50.0 mg/kg/injection, schedule: Q04DX002 (ip), vehicle: Klucel (hydroxypropylcellulose) (HPC) 100 % of control | dose: 100.0 mg/kg/injection, schedule: Q04DX002 (ip), vehicle: Klucel (hydroxypropylcellulose) (HPC) 94 % of control and 107 % of control | dose: 200.0 mg/kg/injection, schedule: Q04DX002 (ip), vehicle: Klucel (hydroxypropylcellulose) (HPC) 102 % of control | dose: 400.0 mg/kg/injection, schedule: Q04DX002 (ip), vehicle: Klucel (hydroxypropylcellulose) (HPC) 100 % of control and 105 % of control

CCOc1ccc(-n2cnc3c(=O)[nH]c(N)nc32)cc1
inactive: [3] 93 % of control | [4] 91 % of control | dose: 400.0 mg/kg/injection, schedule: Q01DX009 (ip), vehicle: Klucel (hydroxypropylcellulose) (HPC) 91 % of control

COc1ccc(/C=C/C=C/C(=O)O)cc1OC
inactive: dose: 50.0 mg/kg/injection, schedule: Q01DX001 (ip), vehicle: other 102 % of control | [10] 98 % of control | [11] 107 % of control | [12] 91 % of control

COC(=O)C(=C(c1ccccc1)c1ccccc1)c1ccccc1
inactive: [1] 90 % of control | [2] 90 % of control

O=C1Nc2ccccc2Oc2ccccc21
inactive: dose: 100.0 mg/kg/injection, schedule: Q01DX009 (ip), vehicle: saline 105 % of control | [8] 92 % of control | dose: 200.0 mg/kg/injection, schedule: Q01DX009 (ip), vehicle: saline 93 % of control | [9] 91 % of control | dose: 400.0 mg/kg/injection, schedule: Q01DX009 (ip), vehicle: saline 98 % of control | dose: 400.0 mg/kg/injection, schedule: Q04DX003 (ip), vehicle: saline 92 % of control

Reference: PubChem BioAssay AID248 (DTP/NCI, 2004)
